Test system: batrachotoxin (BTX) binding site of the sodium channel
Assay: Affinity for the batrachotoxin (BTX) binding site of the sodium channel, [3H]-batrachotoxinin A20 α-benzoate, rat cerebrocortex synaptosomes
Conditions: test concentration not given

| Structure (SMILES) | BTX inhibition (rat) % inhibition [%] |
| --- | --- |
| Cc1cc(C(=O)N2CCc3onc(C(=O)NCCN4CCOCC4)c3C2)ccc1Br [Example 90, 5-(4-bromo-3-methyl-benzoyl)-4,5,6,7-tetrahydro-isoxazolo[4,5-c]pyridine-3-carboxylic acid (2-morpholin-4-yl-ethyl) amide] | 42 |
| Cc1ccc(S(=O)(=O)N2CCc3onc(C(=O)NC4CCN(Cc5c(Cl)cccc5Cl)C4)c3C2)cc1 (centres unmarked) [Example 91, 5-(toluene-4-sulfonyl)-4,5,6,7-tetrahydro-isoxazolo[4,5-c]pyridine-3-carboxylic acid [1-(2,6-dichloro-benzyl)-pyrrolidin-3-yl] amide] | 61 |
| O=C(NCCN1CCCC1)c1noc2c1CN(C(=O)COc1cccc(Cl)c1)CC2 [Example 94, 5-[2-(3-chlorophenoxy)-acetyl]-4,5,6,7-tetrahydro-isoxazolo[4,5-c]pyridine-3-carboxylic acid (2-pyrrolidin-1-yl-ethyl) amide] | 60 |
| O=C(c1noc2c1CN(S(=O)(=O)c1ccccc1)CC2)N1CCN(CC=Cc2ccccc2)CC1 [Example 97, (5-benzenesulfonyl-4,5,6,7-tetrahydro-isoxazolo[4,5-c]pyridin-3-yl)-[4-(3-phenyl-allyl)-piperazin-1-yl]-methanone] | 70 |
| Cc1cc(C(=O)N2CCc3onc(C(=O)NCCN4CCCC4)c3C2)ccc1Br [Example 102, 5-(4-bromo-3-methyl-benzoyl)-4,5,6,7-tetrahydro-isoxazolo[4,5-c]pyridine-3-carboxylic acid (2-pyrrolidin-1-yl-ethyl) amide] | 73 |
| O=C(NC1CCN(Cc2ccc(C(F)(F)F)cc2)C1)c1noc2c1CN(S(=O)(=O)c1ccccc1)CC2 (centres unmarked) [Example 103, 5-benzenesulfonyl-4,5,6,7-tetrahydro-isoxazolo[4,5-c]pyridine-3-carboxylic acid [1-(4-trifluoromethyl-benzyl)-pyrrolidin-3-yl] amide] | 92 |
| CC(CNC(=O)c1noc2c1CN(S(=O)(=O)c1cccs1)CC2)c1ccccc1 (centres unmarked) [Example 104, 5-(thiophene-2-sulfonyl)-4,5,6,7-tetrahydro-isoxazolo[4,5-c]pyridine-3-carboxylic acid (2-phenyl-propyl) amide] | 50 |
| COc1ccc(OCCNC(=O)c2noc3c2CN(S(=O)(=O)c2ccc(C)cc2)CC3)cc1 [Example 109, 5-(toluene-4-sulfonyl)-4,5,6,7-tetrahydro-isoxazolo[4,5-c]pyridine-3-carboxylic acid [2-(4-methoxy-phenoxy)-ethyl] amide] | 56 |
| O=C(c1noc2c1CN(S(=O)(=O)c1cc(Cl)ccc1Cl)CC2)N1CCN(c2ccccc2Cl)CC1 [Example 110, [4-(2-chlorophenyl)-piperazin-1-yl]-[5-(2,5-dichloro-benzenesulfonyl)-4,5,6,7-tetrahydro-isoxazolo[4,5-c]pyridin-3-yl]-methanone] | 55 |
| O=C(NCc1ccc(C(F)(F)F)c(F)c1)c1noc2c1CN(S(=O)(=O)c1ccccc1)CC2 [Example 113, 5-benzenesulfonyl-4,5,6,7-tetrahydro-isoxazolo[4,5-c]pyridine-3-carboxylic acid 3-fluoro-4-trifluoromethyl-benzyl amide] | 60 |
| CCCCOc1ccc(S(=O)(=O)N2CCc3onc(C(=O)NCC(C)C)c3C2)cc1 [Example 114, 5-(4-butoxy-benzenesulfonyl)-4,5,6,7-tetrahydro-isoxazolo[4,5-c]pyridine-3-carboxylic acid isobutyl amide] | 58 |
| O=C(NCCN1CCCC1)c1noc2c1CN(S(=O)(=O)c1cccc(Cl)c1)CC2 [Example 118, 5-(3-chloro-benzenesulfonyl)-4,5,6,7-tetrahydro-isoxazolo[4,5-c]pyridine-3-carboxylic acid (2-pyrrolidin-1-yl-ethyl) amide] | 76 |
| CC(C)CNC(=O)c1noc2c1CN(C(=O)C(NC(=O)OCc1ccccc1)c1ccccc1)CC2 (centres unmarked) [Example 126, [2-(3-isobutylcarbamoyl-6,7-dihydro-4H-isoxazolo[4,5-c]pyridin-5-yl)-2-oxo-1-phenyl-ethyl]-carbamic acid benzyl ester] | 88 |
| COc1ccc(CNC(=S)N2CCc3onc(C(=O)NC4CCCC4)c3C2)cc1 [Example 127, 5-(4-methoxy-benzylthiocarbamoyl)-4,5,6,7-tetrahydro-isoxazolo[4,5-c]pyridine-3-carboxylic acid cyclopentyl amide] | 74 |
| O=C(NC(=S)N1CCc2onc(C(=O)NCCN3CCCC3)c2C1)c1ccccc1 [Example 128, 5-benzoylaminocarbothioyl-4,5,6,7-tetrahydro-isoxazolo[4,5-c]pyridine-3-carboxylic acid (2-pyrrolidin-1-yl-ethyl) amide] | 74 |
| O=C(NCC1CC1)c1noc2c1CN(C(=S)NCc1ccc(Cl)cc1)CC2 [Example 129, 5-(4-chloro-benzylthiocarbamoyl)-4,5,6,7-tetrahydro-isoxazolo[4,5-c]pyridine-3-carboxylic acid cyclopropylmethyl amide] | 53 |

| Structure (SMILES) | BTX inhibition (rat) % inhibition [%] |
| --- | --- |
| COCCNC(=S)N1CCc2onc(C(=O)NCCc3ccccc3)c2C1 [Example 130, 5-(2-methoxy-ethylthiocarbamoyl)-4,5,6,7-tetrahydro-isoxazolo[4,5-c]pyridine-3-carboxylic acid phenethyl amide] | 68 |
| O=C(NCCc1ccccc1)c1noc2c1CN(C(=S)Nc1c(F)c(F)c(F)c(F)c1F)CC2 [Example 131, 5-pentafluorophenylthiocarbamoyl-4,5,6,7-tetrahydro-isoxazolo[4,5-c]pyridine-3-carboxylic acid phenethyl amide] | 58 |
| CC(NC(=S)N1CCc2onc(C(=O)NCCc3ccccc3)c2C1)c1ccccc1 (centres unmarked) [Example 132, 5-(1-phenyl-ethylthiocarbamoyl)-4,5,6,7-tetrahydro-isoxazolo[4,5-c]pyridine-3-carboxylic acid phenethyl amide] | 90 |
| CCOC(=O)CCNC(=O)c1noc2c1CN(C(=S)NCC1CCCCC1)CC2 [Example 134, 3-{[5-(cyclohexylmethyl-thiocarbamoyl)-4,5,6,7-tetrahydro-isoxazolo[4,5-c]pyridine-3-carbonyl]-amino}-propionic acid ethyl ester] | 55 |
| O=C(Nc1ccccc1)c1noc2c1CN(Cc1ccc3ccccc3c1Br)CC2 [Example 135, 5-(1-bromo-naphthalen-2-ylmethyl)-4,5,6,7-tetrahydro-isoxazolo[4,5-c]pyridine-3-carboxylic acid phenyl amide] | 61 |
| O=C(c1noc2c1CN(S(=O)(=O)c1ccc(Cl)c(Cl)c1)CC2)N1CCN(c2nccs2)CC1 [Example 140, (5-(3,4-dichlorophenylsulfonyl)-4,5,6,7-tetrahydroisoxazolo[4,5-c]pyridin-3-yl)(4-(thiazol-2-yl)piperazin-1-yl)methanone] | 55 |
| Cc1cc(C)c(S(=O)(=O)N2CCc3onc(C(=O)N4CCN(c5nccs5)CC4)c3C2)c(C)c1 [Example 141, (5-(mesitylsulfonyl)-4,5,6,7-tetrahydroisoxazolo[4,5-c]pyridin-3-yl)(4-(thiazol-2-yl)piperazin-1-yl)methanone] | 67 |
| O=C(c1noc2c1CN(S(=O)(=O)c1cccc3ccccc13)CC2)N1CCN(c2nccs2)CC1 [Example 142, (5-(naphthalen-1-ylsulfonyl)-4,5,6,7-tetrahydroisoxazolo[4,5-c]pyridin-3-yl)(4-(thiazol-2-yl)piperazin-1-yl)methanone] | 54 |
| O=C(c1noc2c1CN(S(=O)(=O)c1ccc3ccccc3c1)CC2)N1CCN(c2nccs2)CC1 [Example 143, (5-(naphthalen-2-ylsulfonyl)-4,5,6,7-tetrahydroisoxazolo[4,5-c]pyridin-3-yl)(4-(thiazol-2-yl)piperazin-1-yl)methanone] | 48 |
| Cc1cc(C)c(S(=O)(=O)N2CCc3onc(C(=O)N4CCC(CCN5CCCC5)CC4)c3C2)c(C)c1 [Example 146, (5-(mesitylsulfonyl)-4,5,6,7-tetrahydroisoxazolo[4,5-c]pyridin-3-yl)(4-(2-(pyrrolidin-1-yl)ethyl)piperidin-1-yl)methanone] | 81 |
| O=C(c1noc2c1CN(S(=O)(=O)c1ccc(Cl)c(Cl)c1)CC2)N1CCC(CCN2CCCC2)CC1 [Example 147, (5-(3,4-dichlorophenylsulfonyl)-4,5,6,7-tetrahydroisoxazolo[4,5-c]pyridin-3-yl)(4-(2-(pyrrolidin-1-yl)ethyl)piperidin-1-yl)methanone] | 70 |
| O=C(c1noc2c1CN(S(=O)(=O)c1ccc3ccccc3c1)CC2)N1CCC(CCN2CCCC2)CC1 [Example 148, (5-(naphthalen-2-ylsulfonyl)-4,5,6,7-tetrahydroisoxazolo[4,5-c]pyridin-3-yl)(4-(2-(pyrrolidin-1-yl)ethyl)piperidin-1-yl)methanone] | 74 |
| Cl.O=C(c1noc2c1CN(S(=O)(=O)c1cccc3ccccc13)CC2)N1CCC(CCN2CCCC2)CC1 [Example 149, (5-(Naphthalene-1-ylsulfonyl)-4,5,6,7-tetrahydroisoxazolo[4,5-c]pyridin-3-yl)(4-(2-(pyrrolidin-1-yl)ethyl)piperidin-1-yl)methanone hydrochloride] | 86 |
| CC(NC(=O)N1CCc2onc(C(=O)NCc3ccccc3)c2C1)c1ccccc1 (centres unmarked) [Example 150, N^3-benzyl-N^5-(1-phenylethyl)-6,7-dihydroisoxazolo[4,5-c]pyridine-3,5(4H)-dicarboxamide] | 49 |
| COc1ccc(NC(=O)N2CCc3onc(C(=O)NCc4ccccc4)c3C2)cc1 [Example 151, N^3-benzyl-N^5-(4-methoxyphenyl)-6,7-dihydroisoxazolo[4,5-c]pyridine-3,5(4H)-dicarboxamide] | 36 |
| Cc1ccc(NC(=O)c2noc3c2CN(S(=O)(=O)c2ccc(C)cc2)CC3)cc1 [Example 152, N-p-tolyl-5-tosyl-4,5,6,7-tetrahydroisoxazolo[4,5-c]pyridine-3-carboxamide] | 29 |

— patent US8048879B2, “Substituted 4,5,6,7-tetrahydro-isoxazolo[4,5-c]pyridine compounds and use thereof for producing medicaments” (Gruenenthal GmbH, priority 2005, dated 2011)
